Test results as given in the supplement of paper PMC4862054.

What was measured:
Conditions in all cases: incubation time: 72 h
[1] = tested on: MDA-MB-231; assay: normalised viability (% of control), CellTiter-Blue; higher = more viable cells (about 100 = DMSO control)
How it was run: (§1)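 Breast cancer cell lines in 20 µl suspension were seeded onto 384-well plates pre-loaded with compound dissolved in 5 µl medium, then incubated 72 h. CellTiter-Blue reagent (2.5 µl) was added for 2 h at 37 °C and fluorescence read at 560/590 nm. Each plate was normalised to vehicle (100) and a positive kill control (0), with Z'-factor quality control. The value is normalised viability at one listed concentration of the series.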

[2] = tested on: MDA-MB-453; assay: as above
How it was run: as §1

[3] = tested on: BT-549; assay: as above
How it was run: as §1

[4] = tested on: SK-BR-3; assay: as above
How it was run: as §1

[5] = tested on: Hs578T; assay: as above
How it was run: as §1

[6] = tested on: MDA-MB-468; assay: as above
How it was run: as §1

[7] = tested on: HDQ-P1; assay: as above
How it was run: as §1

[8] = tested on: HCC1937; assay: as above
How it was run: as §1

[9] = tested on: DU-4475; assay: as above
How it was run: as §1

[10] = tested on: BT-474; assay: as above
How it was run: as §1

[11] = tested on: CAL-85-1; assay: as above
How it was run: as §1

[12] = tested on: HCC1599; assay: as above
How it was run: as §1

[13] = tested on: HCC1143; assay: as above
How it was run: as §1

[14] = tested on: MFM-223; assay: as above
How it was run: as §1

[15] = tested on: MDA-MB-436; assay: as above
How it was run: as §1

[16] = tested on: CAL-51; assay: as above
How it was run: as §1

[17] = tested on: MDA-MB-231; assay: drug sensitivity score (DSS), CellTox Green (DSS (AUC-based score)); higher = stronger drug effect (viability inhibition or cytotoxicity); extreme values may be limits of the assay
How it was run: (§2)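 Normalisation on every plate relied on 0.1 % DMSO and a positive kill control. The plates, 384-well format, held compound at 5 concentrations 10-fold apart across a compound-specific 10,000-fold range, and breast cancer cell lines in 20 µl suspension were incubated on them for 72 h before CellTox Green and then CellTiter-Glo readings. The drug sensitivity score derives from the area under the fitted dose-response curve.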

[18] = tested on: HCC1937; assay: as above
How it was run: as §2

[19] = tested on: Hs578T; assay: as above
How it was run: as §2

CN1CCC(COc2cnc(-c3cccc(Cn4nc(-c5cccc(C#N)c5)ccc4=O)c3)nc2)CC1
normalised viability ([1]; 10 nM): 79%
normalised viability ([1]; 1000 nM): 81.3%
normalised viability ([1]; 10000 nM): 1.93%
normalised viability ([2]; 3 nM): 84.5%
normalised viability ([2]; 30 nM): 91.2%
normalised viability ([2]; 100 nM): 93.8%
normalised viability ([3]; 10 nM): 98.9%
normalised viability ([3]; 1000 nM): 90%
normalised viability ([3]; 10000 nM): 5.83%
normalised viability ([4]; 10 nM): 93.1%
normalised viability ([4]; 1000 nM): 89.2%
normalised viability ([4]; 10000 nM): 2.76%
normalised viability ([5]; 10 nM): 105%
normalised viability ([5]; 1000 nM): 91%
normalised viability ([5]; 10000 nM): 59.8%
normalised viability ([6]; 10 nM): 92.8%
normalised viability ([6]; 1000 nM): 92.9%
normalised viability ([6]; 10000 nM): 5.99%
normalised viability ([7]; 3 nM): 82%
normalised viability ([7]; 30 nM): 91.8%
normalised viability ([7]; 100 nM): 70.5%
normalised viability ([8]; 10 nM): 79.1%
normalised viability ([8]; 1000 nM): 96.1%
normalised viability ([8]; 10000 nM): 10.6%
normalised viability ([9]; 3 nM): 94.1%
normalised viability ([9]; 30 nM): 89.7%
normalised viability ([9]; 100 nM): 99.2%
normalised viability ([10]; 10 nM): 93.6%
normalised viability ([10]; 1000 nM): 105%
normalised viability ([10]; 10000 nM): 9.72%
normalised viability ([11]; 3 nM): 110%
normalised viability ([11]; 30 nM): 96.5%
normalised viability ([11]; 100 nM): 121%
normalised viability ([12]; 10 nM): 108%
normalised viability ([12]; 1000 nM): 120%
normalised viability ([12]; 10000 nM): 71.9%
normalised viability ([13]; 10 nM): 116%
normalised viability ([13]; 1000 nM): 103%
normalised viability ([13]; 10000 nM): 114%
normalised viability ([14]; 10 nM): 108%
normalised viability ([14]; 1000 nM): 119%
normalised viability ([14]; 10000 nM): 22.5%
normalised viability ([15]; 10 nM): 82.3%
normalised viability ([15]; 1000 nM): 92.3%
normalised viability ([15]; 10000 nM): 11.6%
normalised viability ([16]; 3 nM): 97.3%
normalised viability ([16]; 30 nM): 98%
normalised viability ([16]; 100 nM): 87.6%
drug sensitivity score [17]: 0
drug sensitivity score [18]: 0

CN(C)C/C=C/C(=O)Nc1cc2c(Nc3ccc(F)c(Cl)c3)ncnc2cc1O[C@H]1CCOC1 [Afatinib]
normalised viability ([1]; 10 nM): 89.1%
normalised viability ([1]; 1000 nM): 74.2%
normalised viability ([1]; 10000 nM): 7.48%
normalised viability ([2]; 3 nM): 104%
normalised viability ([2]; 30 nM): 67%
normalised viability ([2]; 100 nM): 46.6%
normalised viability ([3]; 10 nM): 87.1%
normalised viability ([3]; 1000 nM): 92.9%
normalised viability ([3]; 10000 nM): 11.7%
normalised viability ([4]; 10 nM): 52.1%
normalised viability ([4]; 1000 nM): 19.3%
normalised viability ([4]; 10000 nM): 12.3%
normalised viability ([5]; 10 nM): 98%
normalised viability ([5]; 1000 nM): 95.7%
normalised viability ([5]; 10000 nM): 14.4%
normalised viability ([6]; 10 nM): 99.1%
normalised viability ([6]; 1000 nM): 56.9%
normalised viability ([6]; 10000 nM): 11.5%
normalised viability ([7]; 3 nM): 92.5%
normalised viability ([7]; 30 nM): 76.9%
normalised viability ([7]; 100 nM): 77.1%
normalised viability ([8]; 10 nM): 83.2%
normalised viability ([8]; 1000 nM): 67.5%
normalised viability ([8]; 10000 nM): 13.9%
normalised viability ([9]; 3 nM): 95.1%
normalised viability ([9]; 30 nM): 83.2%
normalised viability ([9]; 100 nM): 85.8%
normalised viability ([10]; 10 nM): 72.1%
normalised viability ([10]; 1000 nM): 33.8%
normalised viability ([10]; 10000 nM): 16%
normalised viability ([11]; 3 nM): 83.2%
normalised viability ([11]; 30 nM): 57.4%
normalised viability ([11]; 100 nM): 54.2%
normalised viability ([12]; 10 nM): 97.4%
normalised viability ([12]; 1000 nM): 77.6%
normalised viability ([12]; 10000 nM): 79.5%
normalised viability ([13]; 10 nM): 66%
normalised viability ([13]; 1000 nM): 70%
normalised viability ([13]; 10000 nM): 42.9%
normalised viability ([14]; 10 nM): 88.7%
normalised viability ([14]; 1000 nM): 83.4%
normalised viability ([14]; 10000 nM): 25.1%
normalised viability ([15]; 10 nM): 90.8%
normalised viability ([15]; 1000 nM): 103%
normalised viability ([15]; 10000 nM): 17.3%
normalised viability ([16]; 3 nM): 114%
normalised viability ([16]; 30 nM): 99.8%
normalised viability ([16]; 100 nM): 97.7%
drug sensitivity score [17]: 0
drug sensitivity score [19]: 1.68
drug sensitivity score [18]: 1.72

COc1cc(Nc2ncc3c(n2)-c2ccc(Cl)cc2C(c2c(F)cccc2OC)=NC3)ccc1C(=O)O [Alisertib]
drug sensitivity score [17]: 8.87
drug sensitivity score [19]: 0
drug sensitivity score [18]: 1.76

CN1CC[C@H](c2c(O)cc(O)c3c(=O)cc(-c4ccccc4Cl)oc23)[C@H](O)C1 [Alvocidib]
normalised viability ([1]; 10 nM): 88.2%
normalised viability ([1]; 1000 nM): 7.07%
normalised viability ([1]; 10000 nM): 6.37%
normalised viability ([2]; 3 nM): 104%
normalised viability ([2]; 30 nM): 91.4%
normalised viability ([2]; 100 nM): 73%
normalised viability ([3]; 10 nM): 92%
normalised viability ([3]; 1000 nM): 9%
normalised viability ([3]; 10000 nM): 7.78%
normalised viability ([4]; 10 nM): 88.5%
normalised viability ([4]; 1000 nM): 4.29%
normalised viability ([4]; 10000 nM): 5.99%
normalised viability ([5]; 10 nM): 90.8%
normalised viability ([5]; 1000 nM): 4.18%
normalised viability ([5]; 10000 nM): 2.76%
normalised viability ([6]; 10 nM): 108%
normalised viability ([6]; 1000 nM): 10.4%
normalised viability ([6]; 10000 nM): 5.45%
normalised viability ([7]; 3 nM): 88.6%
normalised viability ([7]; 30 nM): 87.6%
normalised viability ([7]; 100 nM): 84.2%
normalised viability ([8]; 10 nM): 79.5%
normalised viability ([8]; 1000 nM): 15%
normalised viability ([8]; 10000 nM): 18.7%
normalised viability ([9]; 3 nM): 90.7%
normalised viability ([9]; 30 nM): 79.2%
normalised viability ([9]; 100 nM): 78.6%
normalised viability ([10]; 10 nM): 102%
normalised viability ([10]; 1000 nM): 23%
normalised viability ([10]; 10000 nM): 26.6%
normalised viability ([11]; 3 nM): 82.7%
normalised viability ([11]; 30 nM): 79.9%
normalised viability ([11]; 100 nM): 76.6%
normalised viability ([12]; 10 nM): 124%
normalised viability ([12]; 1000 nM): 19.6%
normalised viability ([12]; 10000 nM): 21.9%
normalised viability ([13]; 10 nM): 76.5%
normalised viability ([13]; 1000 nM): 14.1%
normalised viability ([13]; 10000 nM): 15.1%
normalised viability ([14]; 10 nM): 87.3%
normalised viability ([14]; 1000 nM): 8.79%
normalised viability ([14]; 10000 nM): 8.79%
normalised viability ([15]; 10 nM): 91%
normalised viability ([15]; 1000 nM): 14.9%
normalised viability ([15]; 10000 nM): 15.8%
normalised viability ([16]; 3 nM): 109%
normalised viability ([16]; 30 nM): 92.5%
normalised viability ([16]; 100 nM): 78.1%
drug sensitivity score [17]: 16.5
drug sensitivity score [19]: 8.33
drug sensitivity score [18]: 0

Nc1nc(Cl)nc2c1ncn2[C@H]1C[C@H](O)[C@@H](CO)O1 [Cladribine]
normalised viability ([1]; 1 nM): 101%
normalised viability ([1]; 100 nM): 67%
normalised viability ([1]; 1000 nM): 71.9%
normalised viability ([2]; 0.3 nM): 126%
normalised viability ([2]; 3 nM): 97.4%
normalised viability ([2]; 10 nM): 89.7%
normalised viability ([3]; 1 nM): 82.5%
normalised viability ([3]; 100 nM): 86.4%
normalised viability ([3]; 1000 nM): 45.8%
normalised viability ([4]; 1 nM): 92.6%
normalised viability ([4]; 100 nM): 99.7%
normalised viability ([4]; 1000 nM): 42.4%
normalised viability ([5]; 1 nM): 111%
normalised viability ([5]; 100 nM): 104%
normalised viability ([5]; 1000 nM): 105%
normalised viability ([6]; 1 nM): 99.6%
normalised viability ([6]; 100 nM): 94.4%
normalised viability ([6]; 1000 nM): 82.8%
normalised viability ([7]; 0.3 nM): 113%
normalised viability ([7]; 3 nM): 101%
normalised viability ([7]; 10 nM): 109%
normalised viability ([8]; 1 nM): 91.8%
normalised viability ([8]; 100 nM): 56.8%
normalised viability ([8]; 1000 nM): 43.4%
normalised viability ([9]; 0.3 nM): 106%
normalised viability ([9]; 3 nM): 104%
normalised viability ([9]; 10 nM): 102%
normalised viability ([10]; 1 nM): 112%
normalised viability ([10]; 100 nM): 102%
normalised viability ([10]; 1000 nM): 103%
normalised viability ([11]; 0.3 nM): 102%
normalised viability ([11]; 3 nM): 101%
normalised viability ([11]; 10 nM): 105%
normalised viability ([12]; 1 nM): 97.8%
normalised viability ([12]; 100 nM): 83%
normalised viability ([12]; 1000 nM): 91.7%
normalised viability ([13]; 1 nM): 91.9%
normalised viability ([13]; 100 nM): 87.6%
normalised viability ([13]; 1000 nM): 72.2%
normalised viability ([14]; 1 nM): 86.2%
normalised viability ([14]; 100 nM): 86.7%
normalised viability ([14]; 1000 nM): 90%
normalised viability ([15]; 1 nM): 101%
normalised viability ([15]; 100 nM): 90%
normalised viability ([15]; 1000 nM): 65.8%
normalised viability ([16]; 0.3 nM): 119%
normalised viability ([16]; 3 nM): 116%
normalised viability ([16]; 10 nM): 114%
drug sensitivity score [17]: 0.0524
drug sensitivity score [19]: 0
drug sensitivity score [18]: 0
